Reference: article PMC2062954, “Microencapsulated octreotide pamoate in advanced gastrointestinal and pancreatic cancer: a phase I study” (British Journal of Cancer, 1998)

Assay: Plasma octreotide levels by RIA
Assay type: in vivo, human
Procedure: Norway Summary Fourteen patients suffering from advanced colorectal (n = 7), pancreatic (n = 4) or gastric (n = 3) carcinomas received treatment with microencapsulated octreotide pamoate 90 mg i.m. every 4 weeks (n = 4), 160 mg i.m. every 4 weeks (n = 4) or 160 mg i.m. every 2 weeks (n = 6). […] In this study we evaluate the tolerability. clinical effects, pharmacokinetics and effects on plasma IGF-I and -II of a new microencapsulated formulation of octreotide pamoate in patients suffering from gastrointestinal and pancreatic carci- nomas. […] Thus. apart from deter- mining plasma IGF-I and -HI together with IGFBP-1 and -3 with radioimmunoassay (RIA). we measured IGFBPs using Western ligand blotting and the functional status of IGFBP-3 using immunoblotting. […] PATIENTS AND METHODS Patients Fourteen patients (eight men and six A-omen) with progressive locally advanced and/or metastatic adenocarcinomas of abdominal origin were studied (Table 1). Any other svstemic anti-cancer therapy had been terminated at least 4 weeks before inclusion in the study.

C[C@@H](O)[C@@H]1NC(=O)[C@H](CCCCN)NC(=O)[C@@H](Cc2c[nH]c3ccccc23)NC(=O)[C@H](Cc2ccccc2)NC(=O)[C@@H](NC(=O)[C@H](N)Cc2ccccc2)CSSC[C@@H](C(=O)N[C@H](CO)[C@@H](C)O)NC1=O [octreotide]
ratio of peak octreotide level at first day of injection to plasma level just before the next injection (all cohorts, i.m. depot, range, generally two to five times higher, data not shown): 2.2-9.9 | lowest plasma level of octreotide observed at any time during treatment (individual patients, all cohorts, RIA): 3.4 ng/mL | highest plasma octreotide level (one patient in cohort 3 (160 mg i.m. every 2 weeks), long-term treatment > 6 months, at day 13, subsequent gradual decline): 98.9 ng/mL
